Results published in patent publication US20250262214A1, “INTERMITTENT DOSING REGIMEN FOR AZENOSERTIB IN TREATING CANCER” (Zeno Management, Inc., priority 2022, published 2025).
Entries after “also recorded” stand apart in the source; their conditions may differ. Where two headings read alike, the source gives them in different places.

Key:
Wee1 = molecular target: T1, Wee1 (Homo sapiens, UniProt P30291); experiment: PK/PD correlation, Wee1 target engagement (p-CDK1 in skin biopsies); type: in vivo
T1 construct: from tissue; host or cells: skin biopsies of treated subjects
T1 sequence (P30291 whole entry): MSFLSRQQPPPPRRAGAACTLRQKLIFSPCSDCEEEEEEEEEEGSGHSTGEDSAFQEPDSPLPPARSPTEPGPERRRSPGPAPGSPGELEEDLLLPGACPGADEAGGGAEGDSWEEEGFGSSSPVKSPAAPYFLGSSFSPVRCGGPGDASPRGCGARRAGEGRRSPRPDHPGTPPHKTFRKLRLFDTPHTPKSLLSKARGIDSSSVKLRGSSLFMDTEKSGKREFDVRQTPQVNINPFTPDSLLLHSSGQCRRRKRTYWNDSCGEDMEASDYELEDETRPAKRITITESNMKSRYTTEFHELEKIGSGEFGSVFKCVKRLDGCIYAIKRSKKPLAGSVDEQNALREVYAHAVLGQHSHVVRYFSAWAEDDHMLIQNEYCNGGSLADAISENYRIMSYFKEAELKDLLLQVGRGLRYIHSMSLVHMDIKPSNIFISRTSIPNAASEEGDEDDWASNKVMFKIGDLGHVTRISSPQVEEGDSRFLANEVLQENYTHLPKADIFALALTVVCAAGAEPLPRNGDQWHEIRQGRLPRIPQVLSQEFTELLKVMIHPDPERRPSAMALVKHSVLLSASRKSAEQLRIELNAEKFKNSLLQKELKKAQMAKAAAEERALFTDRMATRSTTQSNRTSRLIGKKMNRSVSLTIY
Description: CDK1 phosphorylation (pCDK-1) is mediated by Wee1. It is contemplated that Wee1 inhibition by Azenosertib results in pCDK1 inhibition.

[1] = Clinical exposure (plasma PK) with continuous and intermittent 5/2 dosing; type: in vivo, human; details: for Cmax / Tmax / AUC: human, plasma, oral; for AUC: read-out: AUC24
Description: This example illustrates the clinical exposure achieved with a continuous and an intermittent 5 days on/2 days off (5/2) dosing regimen. A comparison is also made between a once daily dosing regimen and a twice daily dosing regimen. In some embodiments, Azenosertib was administered with food and/or antiemetic agents.
The results are shown as follows: FIG. 5A is a graph of Azenosertib plasma concentration from subjects receiving a 5/2 350 mg once daily or 175 mg twice daily on day 1, cycle 1. FIG. 5B is a graph of Azenosertib plasma concentration from subjects receiving a 5/2 350 mg once daily or 175 mg twice daily on day 11/12, cycle 1. FIG. 5C is a graph of Azenosertib plasma concentration from subjects receiving a continuous dosing regimen relative to subjects receiving a 5/2 intermittent 350 mg once daily dosing regimen on day 1, cycle 1. FIG. 5D is a graph of Azenosertib plasma concentration from subjects receiving a continuous dosing regimen relative to subjects receiving a 5/2 intermittent 350 mg once daily dosing regimen on day 11/12 or 15 of cycle 1. FIG. 5E is a graph of Azenosertib plasma concentration from subjects receiving a continuous dosing regimen relative to subjects receiving a 5/2 intermittent 175 mg twice daily dosing regimen on day 1, cycle 1. FIG. 5F is a graph of Azenosertib plasma concentration from subjects receiving a continuous dosing regimen relative to subjects receiving a 5/2 intermittent 175 mg twice daily dosing regimen on day 11/12 or 15 of cycle 1.

[2] = test system: MDA-MB-468 triple negative breast cancer tumor model; experiment: MDA-MB-468 triple negative breast cancer tumor model, tumor growth inhibition; type: in vivo; details: Azenosertib alone, 60 mg/kg
Description: In vivo exploration of dose and schedule of Azenosertib and PARPi (niraparib, talazoparib) including exploration of alternating dosing was evaluated.

[3] = test system: ovarian cancer and uterine serous carcinoma (USC); experiment: Phase 1a/1b Azenosertib monotherapy study, tumor response (RECIST 1.1); type: in vivo, human
Description: (§1) In this example, a Phase 1a dose escalation and Phase 1b dose expansion clinical study was carried out to evaluate the safety and pharmacokinetics (PK), i.e. steady state exposure (AUC0-24) and concentration maximum (Cmax) of Azenosertib monotherapy.
(§2) In some cohorts, a phase 1a dose escalation was carried out starting at doses below 200 mg, escalating to 200 mg, 300 mg, 350 mg, 400 mg, and 450 mg total daily dose in continuous dosing regimen. The dose used in Phase 1b was 300 mg QD.
(§3) In some cohorts, a phase 1a dose escalation was carried out starting at doses of 350 mg, 400 mg, 450 mg and 500 mg total daily dose at a 5:2 or 4:3 dosing regimen. The doses used in Phase 1b were 350 mg and 400 mg at 5:2 dosing regimen.
Tumor assessments (per RECIST 1.1) were carried out every 2 cycles (6 weeks) in subjects recruited in the study. There were no biomarker requirements to enroll in the study; nor were there any prior therapy requirements. Individuals in the cohorts represented multiple tumor types (FIG. 9A). Heavily pretreated subjects with advanced solid tumors were included in continuous and intermittent dosing cohorts (Table 6).
51 subjects were enrolled with Uterine Serous Carcinoma (USC) or High Grade Serous Ovarian Cancer (HGSOC) after multiple prior therapies in cohorts treated with continuous or intermittent dosing schedules (Table 7A) and intermittent dosing schedule only (Table 7B).
(§4) A total of 127 heavily pretreated subjects with advanced solid tumors were treated with Azenosertib monotherapy at ascending dose levels of either continuous daily dosing or intermittent weekly administration schedules. Across all tumor types, 74 subjects were treated with continuous dosing schedules and 53 subjects were treated with intermittent dosing schedules.

[4] = Phase 1 Azenosertib monotherapy study, PK, safety and RP2D; type: in vivo, human
Description: as §1, §2, §3
In this example, a Phase 1 Azenosertib dose optimization study was carried out to evaluate the recommended phase II dose (RP2D) of Azenosertib monotherapy.
as §4

Half-life of Azenosertib = type: in vivo; details: plasma
[5] = 175 mg, 175 twice daily, 5/2, steady state (Day 12/11)
[6] = 175 mg, 175 twice daily, Continuous, mean steady state (Day 12/11)
[7] = 300 mg, 300 once daily, Continuous, mean steady state (Day 12/11)
[8] = 350 mg, 350 once daily, 5/2, mean steady state (Day 12/11)
[9] = 350 mg, 350 once daily, Continuous, mean steady state (Day 12/11)
[10] = intermittent dosing cohort, platinum-resistant ovarian cancer and USC, median follow-up 9.2 months

C=CCn1c(=O)c2cnc(Nc3ccc(N4CCN(C)CC4)cc3)nc2n1-c1ccc2c(n1)[C@@](O)(CC)CC2 [Azenosertib, (R)-2-allyl-1-(7-ethyl-7-hydroxy-6,7-dihydro-5H-cyclopenta[b]pyridin-2-yl)-6-((4-(4-methylpiperazin-1-yl)phenyl)amino)-1,2-dihydro-3H-pyrazolo[3,4-d]pyrimidin-3-one]
decrease of p-CDK1 levels (Wee1; dose of greater than about 300 mg once daily): at least 50%
p-CDK1 levels in skin biopsies following treatment relative to baseline (Wee1; skin biopsies): decreases in p-CDK1 levels
exposure, intermittent vs continuous dose ([1]; 350 mg once daily (or 175 mg twice daily), 5/2 vs continuous): higher for intermittent vs. continuous; also recorded: comparable or better exposure
Cmax [1, 5]: 1470 ng/mL
Tmax [1, 5]: 1 h
AUC [1, 5]: 13300 ng·h/mL
Cmax [1, 6]: 738 ng/mL
Tmax [1, 6]: 2.3 h
AUC [1, 6]: 10800 ng·h/mL
Cmax [1, 7]: 1090 ng/mL
Tmax [1, 7]: 2.8 h
AUC [1, 7]: 10800 ng·h/mL
Cmax [1, 8]: 1490 ng/mL
Tmax [1, 8]: 3 h
AUC ([1]; 350 mg, 350 once daily, 5/2, steady state (Day 12/11)): 10300 to 15800 ng·h/mL
Cmax [1, 9]: 840 ng/mL
Tmax [1, 9]: 2.2 h
AUC [1, 9]: 7140 ng·h/mL
tumor growth inhibition (TGI) [2]: 52.6%
overall Objective Response Rate (ORR %) ([3]; Azenosertib monotherapy, N=51, N with at least 1 scan=40): 27.5%
subjects with stable disease (SD) or partial response (PR) as best overall response ([3]; USC and HGSOC subjects): 95%
subjects with target lesion reductions from baseline scans ([3]; USC and HGSOC subjects): 89%
ORR % [3, 10]: 36.8%
mPFS [3, 10]: 6.5 months
median PFS ([3]; ovarian, early follow up of median 4.4 months): around 5.1 months
steady state exposure AUC (0-24), intermittent RP2D vs continuous ([4]; 400 mg QD 5/2 compared to 300 mg QD continuous administration): more than doubled
cases of febrile neutropenia and sepsis ([4]; Azenosertib monotherapy including intermittent dosing): no observed cases of febrile neutropenia and sepsis
RP2D as a monotherapy ([4]; daily (QD), 5 days on, 2 days off (5/2) weekly schedule): 400 mg
discontinuations due to TRAEs ([4]; intermittent cohorts): no reported discontinuation; also recorded: No discontinuations due to TRAEs
gastrointestinal, fatigue, and hematologic Grade 3 and 4 treatment-related adverse events (TRAEs) ([4]; intermittent versus continuous dosing): comparable or favorable versus continuous dosing
safety and tolerability, intermittent vs continuous dosing ([4]; monotherapy): improved tolerability
maximal concentration (Cmax) levels, intermittent vs continuous dosing regimen ([4]; monotherapy, Phase 1): higher maximal concentration (Cmax) levels
half-life (Half-life of Azenosertib): 8 h
